# Measured values reported in patent publication US20050244916A1, “Methods for predicting protein activity based on identification of multidimensional signatures” (priority 2004, published 2005).
# Entries after “also recorded” stand apart in the source; their conditions may differ.
# B1: PBP: chemokine, platelet basic peptide (protein, UniProt P02775 35-128, looked up)
# Platelet basic protein: SSTKGQTKRNLAKGKEESLDSDLYAELRCMCIKTTSGIHPKNIQSLEVIGKGTHCNQVEVIATLKDGRKICLDPDAPRIKKIVQKKLAGDESAD
# modifications: Platelet basic protein
# notes: chemokine, platelet basic peptide
# Experiments:
# [1] = literature statement, organisms not given; cited from earlier work
# [2] = system: Staphylococcus aureus (ATCC 27217), Bacillus subtilis (ATCC 6633), Escherichia coli (strain ML-35); experiment: solid-phase radial diffusion antimicrobial assay, bacteria; type: cell-based; settings: for antimicrobial activity compared with standard control defensin HNP-1: pH-specific, organism not specified (panel of bacteria and C. albicans); for antimicrobial activity against bacteria (zones of complete or partial inhibition): radial diffusion, pH 5.5 or pH 7.5, read after 24 h, S. aureus, B. subtilis, E. coli
# Protocol: (§1) Standard radial diffusion assays were conducted using 10 μg of specified peptide: defensin HNP-1 (HNP); brazzein (BRZ); charybdotoxin (CTX); or metallothionein II (MTL). Recombinant brazzein reflecting the published 3-dimensional structure (1BRZ) as determined by nuclear magnetic resonance spectroscopy was kindly provided by Drs. J. L. Markley and F. M. Assadi-Porter, the University of Wisconsin 25. Charybdotoxin, metallothionein II, and defensin HNP-1 were obtained from commercial sources. Antimicrobial activity was assessed using a well-established solid-phase diffusion method as described by Tang et al., Infect. Immun. 70: 6524-6533 (2002). Assays included well characterized organisms: Staphylococcus aureus (ATCC 27217, Gram-positive coccus); Bacillus subtilis (ATCC 6633, Gram-positive bacillus); Escherichia coli (strain ML-35, Gram-negative bacillus); and Candida albicans (ATCC 36082, fungus). In brief, organisms were cultured to logarithmic phase and inoculated (106 colony forming units/ml) into buffered molecular-biology grade agarose at the indicated pH. Peptides resuspended in sterile deionized water were introduced into wells formed in the underlay, and incubated for 3 h at 37° C. Nutrient-containing overlay medium was then applied, and assays incubated at 37° C. or 30° C. for bacteria or fungi, respectively. After 24 h, zones of complete or partial inhibition were measured. All assays were repeated independently a minimum of two times at pH 5.5 (panels A-D) or pH 7.5 (panels E-H) to assess the influences of pH on peptide antimicrobial activities versus microorganisms. Histograms express mean (±standard deviation) zones of complete (blue) or incomplete (yellow) inhibition of growth. […] Note differences in scale.
# (§2) These peptides were tested for antimicrobial activity against a panel of Gram-positive (Staphylococcus aureus, Bacillus subtilis) and Gram-negative (Escherichia coli) bacteria, and the fungus Candida albicans, using a well-established and sensitive in vitro assay [Antimicrobial activity was assessed using a well-established solid-phase diffusion method. Assays included well-characterized organisms: Staphylococcus aureus (ATCC 27217, Gram-positive); Bacillus subtilis (ATCC 6633, Gram-positive); Escherichia coli (strain ML-35, Gram-negative); and Candida albicans (ATCC 36082, fungus). In brief, organisms were cultured to logarithmic phase and inoculated at a density of 10^6 colony forming units/ml in buffered molecular grade agarose at the indicated pH. Five μg of peptide resuspended in sterile deionized water were introduced into wells formed in the underlay, and incubated for 3 h at 37° C. Nutrient-containing overlay medium was then applied, and assays incubated at 37° C. or 30° C. for bacteria or fungi, respectively. Defensin HNP-1 was tested in parallel as a standard control. After 24 h, zones of complete or partial inhibition were measured. All assays were repeated independently a minimum of two times. Tang et al., Infect. Immun. 70:6524 (2002) for detailed methodology.].
# [3] = system: Candida albicans (ATCC 36082); experiment: solid-phase radial diffusion antimicrobial assay, fungus; type: cell-based; settings: pH 5.5 or pH 7.5, read after 24 h
# Protocol: as §1
# as §2, with “Nutrient-containing overlay medium was then applied, and assays incubated at 37° C. or 30° C. for bacteria or fungi, respectively. Defensin HNP-1 was tested in parallel as a standard control.” left out, “All assays were repeated independently a minimum of two times. Tang et al., Infect. Immun. 70:6524 (2002) for detailed methodology.].” left out
molecule,measurement,setting,value
IP-10/CXCL10: interferon-γ inducible protein-10 kDa,direct antimicrobial activity,[1],direct antimicrobial activity
ITAC/CXCL11: interferon-inducible T cell α chemoattractant,direct antimicrobial activity,[1],direct antimicrobial activity
MIG/CXCL9: monokine induced by interferon-γ,direct antimicrobial activity,[1],direct antimicrobial activity
"PF-4: chemokine, human platelet factor-4",direct antimicrobial activity,[1],direct antimicrobial activity
"RANTES: β-chemokine, releasable upon activation normal T cell expressed/secreted",direct antimicrobial activity,[1],direct antimicrobial activity
"brazzein: sweetener protein from Pentadiplandra (J'Oblie berry); recombinant, structure 1BRZ (QDKCKKVYENYPVSKCQLANQCNYDCKLDKHARSGECFYDEKRNLQCICDYCEY; UniProt P56552 1-54, looked up)",antimicrobial activity compared with standard control defensin HNP-1,[2],in some conditions exceeded that of HNP-1
same,antimicrobial activity against bacteria (zones of complete or partial inhibition),[2],direct antimicrobial activities; also recorded: previously unrecognized antimicrobial activity; also recorded: exerted direct antimicrobial activity
same,antimicrobial activity against C. albicans (zones of complete or partial inhibition),[3],direct antimicrobial activities; also recorded: previously unrecognized antimicrobial activity; also recorded: exerted direct antimicrobial activity
charybdotoxin,antimicrobial activity compared with standard control defensin HNP-1,[2],in some conditions exceeded that of HNP-1
same,antimicrobial activity against bacteria (zones of complete or partial inhibition),[2],direct antimicrobial activities; also recorded: previously unrecognized antimicrobial activity; also recorded: exerted direct antimicrobial activity
same,antimicrobial activity against C. albicans (zones of complete or partial inhibition),[3],direct antimicrobial activities; also recorded: previously unrecognized antimicrobial activity; also recorded: exerted direct antimicrobial activity
"metallothionein II: prototype metallothionein (Saccharomyces, 1AOO) lacking the γ-core motif; comparator predicted to lack antimicrobial activity (QNEGHECQCQCGSCKNNEQCQKSCSCPTGCNSDDKCPCGNKSEETKKSCCSGK; UniProt P0CX80 9-61, looked up)",antimicrobial activity against bacteria (zones of complete or partial inhibition),[2],devoid of antimicrobial activity; also recorded: failed to exert antimicrobial activity
same,antimicrobial activity against bacteria (zones of complete or partial inhibition),[2]; listed as Metallothionein II,lacked antimicrobial activity
same,antimicrobial activity against C. albicans (zones of complete or partial inhibition),[3],devoid of antimicrobial activity; also recorded: failed to exert antimicrobial activity
same,antimicrobial activity against C. albicans (zones of complete or partial inhibition),[3]; listed as Metallothionein II,lacked antimicrobial activity
B1,direct antimicrobial activity,[1],direct antimicrobial activity
